According to US11006626B2, “Compounds for protection of cells” (Sulfateq B.V., priority 2012, dated 2021):

Key:
[1] = test system: Human Embryo Kidney (HEK) 293 cells; assay: Hypothermia/rewarming injury of HEK cells, trypan blue viability count; format: cell-based; details: for viability at 0.01 µM / viability at 0.1 µM / viability at 1 µM / viability at 10 µM / viability at 100 µM / viability at 1000 µM: Homo sapiens, HEK293, 24 h, 24 h at 4° C., 24 h rewarming, read-out: % cells that survived; for viability at 0.01 µM: 10 nM; for viability at 0.1 µM: 100 nM; for viability at 1000 µM: 1 mM; for % cells that survived, Mean: mean over the tested concentrations
Description: Human Embryo Kidney (HEK) 293 cells were cultured in DMEM cell culture medium (Life Technologies, 41965-052) supplemented with fetal calf serum, penicillin and streptomycin. Cells were seeded at a density of 0.8-1.2E6 mL-1 in 25 cm2 polystyrene flasks, placed in a 37° C.
The compounds were dissolved in dimethyl sulfoxide (DMSO) to several concentrations. Before commencing experiments, this stock solution was dissolved in pre-warmed DMEM and further diluted to obtain a concentration range from 10 nM-1 mM. Cell culture medium was then replaced by these dilutions and cells were incubated in the presence of the compound for 1 hour. After incubation, lids were closed tightly and flasks were placed in a 4° C. room and cooled for 24 hours. After this cooling period, cells were placed back in the 37° C. incubator with lids closed and were allowed to rewarm for another 24 hours.
After this rewarming period, microscopic images were taken to assess cell morphology (Nikon D5100, Nikon Diaphot-TMD). Cell culture medium was collected and centrifuged (4 minutes, 2000 rpm). The supernatant was collected and pH was immediately measured to prevent equilibration of the pH by the carbonate buffer in the medium, while the pelleted cells were resuspended in 5 mL of PBS. Cells remaining in the flask were washed twice with phosphate buffered saline (PBS) while the washing product was discarded. Subsequently, the cells were trypsinized by addition of 0.5 mL of trypsine and pooled with the resuspended pellet. This cell suspension was then stained at a final concentration of 0.2% trypan blue (Sigma, T8154), followed by manual assessment of viability and cell number on a Bürker-Türk hemocytometer. To conclude the assay, cell culture medium glucose levels were measured (Roche Accutrend Plus) as an indication of metabolic activity. All of these steps were performed with care to prevent mechanical stress to influence or alter the viability of the cells after cooling.
The amount represents the % cells that survived. […] In the control, the same procedure was applied to two badges of HEK cells.

porcine hearts = assay: Cold ischemic tolerance of porcine hearts, reperfusion in PhysioHeart platform; design: species or system pig
Description: This example studies if SUL 109 as additive to standard heart transplantation protocols will help to prolong the maximal cold ischemic protection of porcine hearts. For long term arrest, for example in case of transplantation, a commonly used solution is CUSTODIOL®. With CUSTODIOL® solution it is possible to keep a heart in a cold ischemic state for up to six hours before reperfusion with warm oxygenated blood is necessary.
Two hearts were harvested from slaughterhouse pigs and treated as follows. […] After exsanguinations the sternum was quickly opened and the heart and lungs were removed as a whole. The heart was immediately submersed in an ice cold bath and the aorta was cut proximal to the brachocephalic side branches. A 19 mm cannula was inserted in the aorta and tied off. The carefully de-aired cannulla was used to retrogradely administer cold cardioplegic solution. In the first heart, 2 liters of standard CUSTODIOL® with 5000 IU/1 of heparin added was administered. The second heart was administered 2 liters of CUSTODIOL® with 5000 IU/1 of heparin and 10 ml/l of SUL 109 in 0.9% NaCl at 75 μM. Both hearts were stored in plastic bags filled with the same solutions and transported to the lab on ice at approximately 4° C. Before preparation the hearts were stored at 4° C. for 24 hours. The next day both hearts were prepared to be mounted in the PhysioHeart platform as described in DeHart et al 2011. After de-airing the hearts, retrograde reperfusion of the aorta was started with warm oxygenated blood at 38° C. Both flow of blood and pressure at the aortic root were registered during the experiment.

blood platelets = assay: Cold storage of PRP blood platelets, aggregation of thrombocytes after storage; format: cell-based; design: key: − means that most of the thrombocytes were aggregated; a + indicates that a few cells were still viable but some cells aggregated; a ++ indicates that almost all cells were viable; details: 30 mM; PRP platelets stored at 4° C.; 264 hours
Description: PRP platelets were harvested and 2.1 ml was suspended in Poly Propylene tubes of 5 ml, closed with a stop.
Several compounds according to the invention were added to the blood platelets directly after preparing the PRP plasma and incubated during 10 minutes at 37° C. or 30 minutes at room temperature. The blood platelets with the compound were then stored at 4° C.
A control was stored under shaking conditions at room temperature. Another control was stored at 4° C. without the addition of a compound.
A sample was taken out of each tube after 264 hours after addition of the compound and tested as follows: • The color and coagulation properties were visually analysed. • The thrombocyte cells that survived were counted and it was evaluated whether the thrombocytes were aggregated. • It was evaluated if the thrombocytes still were able to function after stimulation by the addition of ADP or under influence of collagen in a 96 well plate. • The adhesion was evaluated, meaning the ability of the platelets to bind collagen in a 6 well plate preincubated with collagen. • Via an ELISA assay, it was evaluated whether thromboxane was secreted from the platelets. Thromboxane facilitates aggregation and is produced by activated blood platelets.
Table 3 provides an overview of the results of the addition of the compounds to the blood platelets and evaluates the aggregation of the thrombocytes after addition of the compound according to the invention and cooling until 4° C.

[2] = at reperfusion after 24 hours at 4° C., vs. non treated heart

| SMILES | viability at 0.01 µM [1] | viability at 0.1 µM [1] | viability at 1 µM [1] | viability at 10 µM [1] | viability at 100 µM [1] | viability at 1000 µM [1] | % cells that survived, Mean [1] | contraction after defibrillation shocks (porcine hearts; at reperfusion after 24 hours at 4° C.) | contractile activity (porcine hearts; [2]) | vascular resistance (porcine hearts; [2]) | coronary flow (porcine hearts; perfusion pressure of 80 mmHg, reperfusion after 24 hours at 4° C.) | contractive activity of the myocardial tissue (porcine hearts; treated vs. non-treated heart) | Aggregation of blood platelets after storage (blood platelets) |
| --- | --- | --- | --- | --- | --- | --- | --- | --- | --- | --- | --- | --- | --- |
| Cc1c(C)c2c(c(C)c1O)CCC(C)(C(=O)N1CCN(CCO)CC1)O2 (centres unmarked) [SUL - 109, (6-hydroxy-2,5,7,8-tetramethylchroman-2-yl)(4-(2-hydroxyethyl)piperazin-1-yl)methanone] | 92.6% | 98% | 97% | 94.9% | 93.7% | 87.4% | 94% | weak contractive unpaced pattern | more contractile activity compared to the non treated one | lower vascular resistance | 1 lpm | improved regular contractive activity |  |
| CNCCNC(=O)C1(C)CCc2c(C)c(O)c(C)c(C)c2O1 (centres unmarked) [SUL - 100, 6-hydroxy-2,5,7,8-tetramethyl-N-(2-(methylamino)ethyl)chroman-2-carboxamide] | 77.8% | 76.9% | 63.2% | 68.8% | 55.6% | 0% | 57% |  |  |  |  |  | + |
| Cc1c(C)c2c(c(C)c1O)CCC(C)(C(=O)N[C@H](C)CO)O2 (stereo partly drawn) [SUL - 120, 6-hydroxy-N-((R)-1-hydroxypropan-2-yl)-2,5,7,8-tetramethylchroman-2-carboxamide] | 17.6% | 65.3% | 95.5% | 91.6% | 88.7% | 81.5% | 73% |  |  |  |  |  | + |
| Cc1c(C)c2c(c(C)c1O)CC[C@](C)(C(=O)N1CCN(CC(=O)O)CC1)O2 [SUL - 142, (R)-2-(4-(6-hydroxy-2,5,7,8-tetramethylchroman-2-carbonyl)piperazin-1-yl)acetic acid] | 0% | 73% | 98.5% | 99.2% | 99.4% | 91.9% | 77% |  |  |  |  |  | ++ |
| Cc1c(C)c2c(c(C)c1O)CCC(C)(C(=O)N1CCC[C@H]1C(=O)O)O2 (mixture of isomers) [SUL - 143, (2S)-1-(6-hydroxy-2,5,7,8-tetramethylchroman-2-carbonyl)pyrrolidine-2-carboxylic acid] | 30.6% | 35% | 14.9% | 49.5% | 97.8% | 98.4% | 54% |  |  |  |  |  | + |
